Laboratory results as given in patent US8815882B2, “Pyrazole aminopyrimidine derivatives as LRRK2 modulators” (Genentech, Inc., priority 2010, dated 2014).

Molecular target: T1, LRRK2 (Homo sapiens, UniProt Q5S007, G2019S)
T1 construct: purchased Invitrogen PV4882 (lot 567054A)
Experiment: In Vitro LRRK2 Assay (LabChip 3000, fluorescently-labeled peptide substrate, ATP)
Format: biochemical
Details: read-out: LRRK2 Ki (KI), Table 8
Outline: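 LRRK2, fluorescent peptide substrate (diluted to 4 μM before mixing), ATP and compound were incubated 2 h in the dark, then stopped. Phosphorylated and unphosphorylated peptide were separated by capillary electrophoresis and quantified by fluorescence. Ki was fitted with a tight-binding equation including enzyme concentration, S and Km; IC50 or percent inhibition were also reported.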

T1 sequence (Q5S007 whole entry G2019S): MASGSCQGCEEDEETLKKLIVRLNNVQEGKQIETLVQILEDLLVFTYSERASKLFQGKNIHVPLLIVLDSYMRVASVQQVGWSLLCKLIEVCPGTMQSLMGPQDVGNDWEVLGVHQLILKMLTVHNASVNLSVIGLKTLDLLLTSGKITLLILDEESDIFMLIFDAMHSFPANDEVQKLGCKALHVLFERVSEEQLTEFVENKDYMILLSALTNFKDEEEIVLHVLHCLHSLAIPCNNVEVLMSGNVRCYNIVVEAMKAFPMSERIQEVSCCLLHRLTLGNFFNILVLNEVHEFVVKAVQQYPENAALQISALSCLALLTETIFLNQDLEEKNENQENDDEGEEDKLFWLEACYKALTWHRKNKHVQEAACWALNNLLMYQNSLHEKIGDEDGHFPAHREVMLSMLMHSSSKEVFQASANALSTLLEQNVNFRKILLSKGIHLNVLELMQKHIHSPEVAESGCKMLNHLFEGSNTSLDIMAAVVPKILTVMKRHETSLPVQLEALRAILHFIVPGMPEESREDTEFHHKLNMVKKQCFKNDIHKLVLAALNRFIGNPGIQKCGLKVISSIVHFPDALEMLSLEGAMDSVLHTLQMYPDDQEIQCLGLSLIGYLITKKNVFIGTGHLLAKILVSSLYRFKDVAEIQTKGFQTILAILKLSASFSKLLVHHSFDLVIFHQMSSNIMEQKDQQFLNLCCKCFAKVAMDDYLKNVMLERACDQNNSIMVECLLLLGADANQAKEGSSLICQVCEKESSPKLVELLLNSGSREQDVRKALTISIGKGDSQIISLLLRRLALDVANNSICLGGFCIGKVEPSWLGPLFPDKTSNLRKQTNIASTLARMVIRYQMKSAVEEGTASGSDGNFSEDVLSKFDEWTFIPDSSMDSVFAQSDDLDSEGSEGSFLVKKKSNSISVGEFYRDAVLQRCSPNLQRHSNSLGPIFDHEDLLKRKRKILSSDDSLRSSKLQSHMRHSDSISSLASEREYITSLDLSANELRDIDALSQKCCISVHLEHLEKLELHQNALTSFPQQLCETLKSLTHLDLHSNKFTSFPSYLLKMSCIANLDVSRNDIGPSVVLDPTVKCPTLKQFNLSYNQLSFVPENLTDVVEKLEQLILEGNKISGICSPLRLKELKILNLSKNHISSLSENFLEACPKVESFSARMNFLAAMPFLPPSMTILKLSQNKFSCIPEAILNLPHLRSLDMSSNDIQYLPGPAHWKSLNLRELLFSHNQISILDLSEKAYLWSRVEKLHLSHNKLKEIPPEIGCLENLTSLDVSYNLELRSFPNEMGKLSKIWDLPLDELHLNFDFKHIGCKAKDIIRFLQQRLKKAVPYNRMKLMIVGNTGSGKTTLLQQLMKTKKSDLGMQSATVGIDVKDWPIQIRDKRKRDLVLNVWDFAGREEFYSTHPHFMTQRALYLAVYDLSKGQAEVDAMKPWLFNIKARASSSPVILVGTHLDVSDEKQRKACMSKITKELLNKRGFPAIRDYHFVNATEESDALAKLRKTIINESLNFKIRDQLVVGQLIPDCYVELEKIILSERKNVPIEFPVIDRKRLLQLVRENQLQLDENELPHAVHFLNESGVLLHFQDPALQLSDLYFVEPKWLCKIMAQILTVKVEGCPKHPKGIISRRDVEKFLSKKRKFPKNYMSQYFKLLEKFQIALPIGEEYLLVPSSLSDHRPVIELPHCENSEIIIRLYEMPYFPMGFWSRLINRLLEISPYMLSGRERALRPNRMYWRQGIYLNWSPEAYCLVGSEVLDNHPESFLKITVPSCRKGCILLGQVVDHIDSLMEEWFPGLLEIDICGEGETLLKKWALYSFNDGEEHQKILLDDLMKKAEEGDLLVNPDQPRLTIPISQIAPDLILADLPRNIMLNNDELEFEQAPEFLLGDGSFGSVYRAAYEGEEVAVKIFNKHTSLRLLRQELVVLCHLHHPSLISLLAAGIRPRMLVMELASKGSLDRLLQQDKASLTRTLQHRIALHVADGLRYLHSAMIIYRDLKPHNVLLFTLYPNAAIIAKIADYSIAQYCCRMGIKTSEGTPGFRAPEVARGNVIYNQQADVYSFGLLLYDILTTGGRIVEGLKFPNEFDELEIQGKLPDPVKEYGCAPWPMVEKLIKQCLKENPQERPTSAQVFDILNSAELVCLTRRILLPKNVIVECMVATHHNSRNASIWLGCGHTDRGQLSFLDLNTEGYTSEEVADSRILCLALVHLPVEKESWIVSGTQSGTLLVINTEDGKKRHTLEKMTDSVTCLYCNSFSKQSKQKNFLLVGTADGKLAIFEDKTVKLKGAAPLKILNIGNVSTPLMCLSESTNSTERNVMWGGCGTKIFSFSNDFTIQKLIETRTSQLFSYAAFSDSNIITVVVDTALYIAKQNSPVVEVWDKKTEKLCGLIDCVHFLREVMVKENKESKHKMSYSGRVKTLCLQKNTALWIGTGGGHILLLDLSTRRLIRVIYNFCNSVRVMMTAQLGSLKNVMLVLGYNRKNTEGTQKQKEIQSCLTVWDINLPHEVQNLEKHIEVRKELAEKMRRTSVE

SMILES	Ki [nM]
CNc1nc(Nc2cnn(C3CCN(C4COC4)CC3F)c2Cl)ncc1C(F)(F)F (centres unmarked) [Example 305, N2-[5-Chloro-1-(3-fluoro-1-oxetan-3-yl-piperidin-4-yl)-1H-pyrazol-4-yl]-N4-methyl-5-trifluoromethyl-pyrimidine-2,4-diamine]	2.2
CCNc1nc(Nc2cnn(C3CCN(C4COC4)CC3F)c2Cl)ncc1C(F)(F)F (centres unmarked) [Example 306, N2-[5-Chloro-1-(3-fluoro-1-oxetan-3-yl-piperidin-4-yl)-1H-pyrazol-4-yl]-N4-ethyl-5-trifluoromethyl-pyrimidine-2,4-diamine]	0.6
CCNc1nc(Nc2cnn([C@H]3CCCN(C4COC4)C3)c2C)ncc1C(F)(F)F [Example 307, N4-Ethyl-N2-[5-methyl-1-((S)-1-oxetan-3-yl-piperidin-3-yl)-1H-pyrazol-4-yl]-5-trifluoromethyl-pyrimidine-2,4-diamine]	0.3
CCNc1nc(Nc2cn([C@H]3CCCN(C4COC4)C3)nc2C)ncc1C(F)(F)F [Example 308, N4-Ethyl-N2-[3-methyl-1-((S)-1-oxetan-3-yl-piperidin-3-yl)-1H-pyrazol-4-yl]-5-trifluoromethyl-pyrimidine-2,4-diamine]	8.5
CNc1nc(Nc2cnn(Cc3cccnn3)c2C)ncc1C(F)(F)F [Example 309, N4-Methyl-N2-(5-methyl-1-pyridazin-3-ylmethyl-1H-pyrazol-4-yl)-5-trifluoromethyl-pyrimidine-2,4-diamine]	2.8
CNc1nc(Nc2cn(Cc3cccnn3)nc2C)ncc1C(F)(F)F [Example 310, N4-Methyl-N2-(3-methyl-1-pyridazin-3-ylmethyl-1H-pyrazol-4-yl)-5-trifluoromethyl-pyrimidine-2,4-diamine]	9.3
CCNc1nc(Nc2cnn([C@H]3CCCN(C)C3)c2C)ncc1C(F)(F)F [Example 311, N4-Ethyl-N2-[5-methyl-1-((S)-1-methyl-piperidin-3-yl)-1H-pyrazol-4-yl]-5-trifluoromethyl-pyrimidine-2,4-diamine]	1.2
CCNc1nc(Nc2cn([C@H]3CCCN(C)C3)nc2C)ncc1C(F)(F)F [Example 312, N4-Ethyl-N2-[3-methyl-1-((S)-1-methyl-piperidin-3-yl)-1H-pyrazol-4-yl]-5-trifluoromethyl-pyrimidine-2,4-diamine]	15.6
CNc1nc(Nc2cnn(CC(C)(C)C#N)c2Cl)ncc1C(F)(F)F [Example 313, 3-[5-Chloro-4-(4-methylamino-5-trifluoromethyl-pyrimidin-2-ylamino)-pyrazol-1-yl]-2,2-dimethyl-propionitrile]	1.7
CNc1nc(Nc2cnn(Cc3cccc(C)n3)c2C)ncc1C(F)(F)F [Example 314, N4-Methyl-N2-[5-methyl-1-(6-methyl-pyridin-2-ylmethyl)-1H-pyrazol-4-yl]-5-trifluoromethyl-pyrimidine-2,4-diamine]	1.5
CNc1nc(Nc2cnn(Cc3ncccn3)c2C)ncc1C(F)(F)F [Example 315, N4-Methyl-N2-(5-methyl-1-pyrimidin-2-ylmethyl-1H-pyrazol-4-yl)-5-trifluoromethyl-pyrimidine-2,4-diamine]	1.4
CNc1nc(Nc2cnn(Cc3cnccn3)c2C)ncc1C(F)(F)F [Example 316, N4-Methyl-N2-(5-methyl-1-pyrazin-2-ylmethyl-1H-pyrazol-4-yl)-5-trifluoromethyl-pyrimidine-2,4-diamine]	2.6
CNc1nc(Nc2cn(Cc3cnccn3)nc2C)ncc1C(F)(F)F [Example 317, N4-Methyl-N2-(3-methyl-1-pyrazin-2-ylmethyl-1H-pyrazol-4-yl)-5-trifluoromethyl-pyrimidine-2,4-diamine]	1.2
CCNc1nc(Nc2cnn(CC(C)(C)C#N)c2Cl)ncc1C(F)(F)F [Example 318, 3-[5-Chloro-4-(4-ethylamino-5-trifluoromethyl-pyrimidin-2-ylamino)-pyrazol-1-yl]-2,2-dimethyl-propionitrile]	0.7
CCNc1nc(Nc2cn(C3CCN(C4COC4)CC3F)nc2C)ncc1C(F)(F)F (centres unmarked) [Example 319, N4-Ethyl-N2-[1-(3-fluoro-1-oxetan-3-yl-piperidin-4-yl)-3-methyl-1H-pyrazol-4-yl]-5-trifluoromethyl-pyrimidine-2,4-diamine]	0.3
CNc1nc(Nc2cnn(CC(O)C(C)C)c2C)ncc1C(F)(F)F (centres unmarked) [Example 320, 3-Methyl-1-[5-methyl-4-(4-methylamino-5-trifluoromethyl-pyrimidin-2-ylamino)-pyrazol-1-yl]-butan-2-ol]	3
CNc1nc(Nc2cn(CC(O)C(C)C)nc2C)ncc1C(F)(F)F (centres unmarked) [Example 321, 3-Methyl-1-[3-methyl-4-(4-methylamino-5-trifluoromethyl-pyrimidin-2-ylamino)-pyrazol-1-yl]-butan-2-ol]	10.8
CCNc1nc(Nc2cn(C3CCN(CC4OCCO4)C3)nc2C)ncc1C(F)(F)F (centres unmarked) [Example 322, N2-[1-(1-[1,3]Dioxolan-2-ylmethyl-pyrrolidin-3-yl)-3-methyl-1H-pyrazol-4-yl]-N4-ethyl-5-trifluoromethyl-pyrimidine-2,4-diamine]	4.9
CNc1nc(Nc2cnn(Cc3ccncn3)c2C)ncc1C(F)(F)F [Example 323, N4-Methyl-N2-(5-methyl-1-pyrimidin-4-ylmethyl-1H-pyrazol-4-yl)-5-trifluoromethyl-pyrimidine-2,4-diamine]	2.2
CNc1nc(Nc2cnn(Cc3ccn(C)n3)c2C)ncc1C(F)(F)F [Example 324, N4-Methyl-N2-[5-methyl-1-(1-methyl-1H-pyrazol-3-ylmethyl)-1H-pyrazol-4-yl]-5-trifluoromethyl-pyrimidine-2,4-diamine]	0.6
CNc1nc(Nc2cn(Cc3ccn(C)n3)nc2C)ncc1C(F)(F)F [Example 325, N4-Methyl-N2-[3-methyl-1-(1-methyl-1H-pyrazol-3-ylmethyl)-1H-pyrazol-4-yl]-5-trifluoromethyl-pyrimidine-2,4-diamine]	3.8
CNc1nc(Nc2cn(CC(C)(C)C#N)nc2Cl)ncc1C(F)(F)F [Example 326, 3-[3-Chloro-4-(4-methylamino-5-trifluoromethyl-pyrimidin-2-ylamino)-pyrazol-1-yl]-2,2-dimethyl-propionitrile]	8.2
CCNc1nc(Nc2cn(C(C)(C)c3nnc[nH]3)nc2C)ncc1C(F)(F)F [Example 327, N4-Ethyl-N2-{3-methyl-1-[1-methyl-1-(4H-[1,2,4]triazol-3-yl)-ethyl]-1H-pyrazol-4-yl}-5-trifluoromethyl-pyrimidine-2,4-diamine]	0.5
CCNc1nc(Nc2cnn(C3CCN(CC4OCCO4)C3)c2C)ncc1C(F)(F)F (centres unmarked) [Example 328, N2-[1-(1-[1,3]Dioxolan-2-ylmethyl-pyrrolidin-3-yl)-5-methyl-1H-pyrazol-4-yl]-N4-ethyl-5-trifluoromethyl-pyrimidine-2,4-diamine]	0.4
CNc1nc(Nc2cn(Cc3ccncn3)nc2C)ncc1C(F)(F)F [Example 329, N4-Methyl-N2-(3-methyl-1-pyrimidin-4-ylmethyl-1H-pyrazol-4-yl)-5-trifluoromethyl-pyrimidine-2,4-diamine]	5.2
CNc1nc(Nc2cnn(C)c2CF)ncc1C(F)(F)F [Example 330, N2-(5-Fluoromethyl-1-methyl-1H-pyrazol-4-yl)-N4-methyl-5-trifluoromethyl-pyrimidine-2,4-diamine]	24.5
